Results: patent publication US20230151003A1, “COMPOUNDS AND METHODS OF USE” (Exelixis, Inc., priority 2020, published 2023)
Structures can show the parent of a compound that is named as a salt.

Columns and labels:
AXL = biological target: T1, AXL (Homo sapiens, UniProt P30530); test: AXL autophosphorylation ELISA in A-172 cells; format: cell-based; settings: Table 3 Cellular Activities, Gas6-stimulated, phospho-AXL ELISA
T1 construct: endogenous in cells; host or cells: A-172 glioblastoma cells (ATCC #CRL-1620)
T1 sequence (P30530 26-894): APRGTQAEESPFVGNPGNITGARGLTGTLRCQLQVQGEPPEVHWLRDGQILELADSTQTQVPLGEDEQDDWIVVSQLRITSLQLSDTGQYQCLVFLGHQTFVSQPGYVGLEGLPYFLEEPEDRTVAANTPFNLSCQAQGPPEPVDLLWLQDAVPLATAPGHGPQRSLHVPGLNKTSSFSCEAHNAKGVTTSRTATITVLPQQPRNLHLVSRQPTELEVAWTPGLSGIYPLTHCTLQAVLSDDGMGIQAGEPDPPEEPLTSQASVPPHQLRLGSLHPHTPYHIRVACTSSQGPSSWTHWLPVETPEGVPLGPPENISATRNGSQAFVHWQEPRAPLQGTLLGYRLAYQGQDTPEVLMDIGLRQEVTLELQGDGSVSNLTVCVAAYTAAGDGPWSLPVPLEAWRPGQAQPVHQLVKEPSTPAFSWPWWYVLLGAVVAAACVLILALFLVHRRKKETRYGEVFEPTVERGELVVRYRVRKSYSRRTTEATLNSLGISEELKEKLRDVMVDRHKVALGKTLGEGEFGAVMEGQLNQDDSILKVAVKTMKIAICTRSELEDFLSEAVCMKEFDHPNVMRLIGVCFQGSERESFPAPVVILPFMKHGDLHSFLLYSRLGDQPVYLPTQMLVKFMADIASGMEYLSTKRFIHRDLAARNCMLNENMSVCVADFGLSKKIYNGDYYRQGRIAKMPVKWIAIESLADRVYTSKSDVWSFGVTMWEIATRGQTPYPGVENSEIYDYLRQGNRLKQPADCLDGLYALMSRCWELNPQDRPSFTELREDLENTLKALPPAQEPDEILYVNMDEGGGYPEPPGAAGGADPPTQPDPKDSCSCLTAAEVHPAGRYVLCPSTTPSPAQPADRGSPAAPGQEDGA
Method in brief: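 A-172 glioblastoma cells serum-starved 24 h, treated 1 h with compounds (8-point dose curve, 0.3% DMSO), then stimulated with 1 μg/mL Gas6 for 15 min. Lysate phospho-AXL quantified by ELISA against a standard; IC50 from 4-parameter logistic fit, normalised to DMSO and reference-inhibitor controls.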

Met = Met (Homo sapiens, UniProt P08581); test: Met autophosphorylation ELISA in PC-3 cells; format: cell-based; parameters: endogenous in cells; host or cells: PC-3 prostate cancer cells (ATCC #CRL-1435); settings: Table 3 Cellular Activities, HGF-stimulated, phospho-Met ELISA, read-out: c-Met IC50
Chain of Met (P08581 25-1390): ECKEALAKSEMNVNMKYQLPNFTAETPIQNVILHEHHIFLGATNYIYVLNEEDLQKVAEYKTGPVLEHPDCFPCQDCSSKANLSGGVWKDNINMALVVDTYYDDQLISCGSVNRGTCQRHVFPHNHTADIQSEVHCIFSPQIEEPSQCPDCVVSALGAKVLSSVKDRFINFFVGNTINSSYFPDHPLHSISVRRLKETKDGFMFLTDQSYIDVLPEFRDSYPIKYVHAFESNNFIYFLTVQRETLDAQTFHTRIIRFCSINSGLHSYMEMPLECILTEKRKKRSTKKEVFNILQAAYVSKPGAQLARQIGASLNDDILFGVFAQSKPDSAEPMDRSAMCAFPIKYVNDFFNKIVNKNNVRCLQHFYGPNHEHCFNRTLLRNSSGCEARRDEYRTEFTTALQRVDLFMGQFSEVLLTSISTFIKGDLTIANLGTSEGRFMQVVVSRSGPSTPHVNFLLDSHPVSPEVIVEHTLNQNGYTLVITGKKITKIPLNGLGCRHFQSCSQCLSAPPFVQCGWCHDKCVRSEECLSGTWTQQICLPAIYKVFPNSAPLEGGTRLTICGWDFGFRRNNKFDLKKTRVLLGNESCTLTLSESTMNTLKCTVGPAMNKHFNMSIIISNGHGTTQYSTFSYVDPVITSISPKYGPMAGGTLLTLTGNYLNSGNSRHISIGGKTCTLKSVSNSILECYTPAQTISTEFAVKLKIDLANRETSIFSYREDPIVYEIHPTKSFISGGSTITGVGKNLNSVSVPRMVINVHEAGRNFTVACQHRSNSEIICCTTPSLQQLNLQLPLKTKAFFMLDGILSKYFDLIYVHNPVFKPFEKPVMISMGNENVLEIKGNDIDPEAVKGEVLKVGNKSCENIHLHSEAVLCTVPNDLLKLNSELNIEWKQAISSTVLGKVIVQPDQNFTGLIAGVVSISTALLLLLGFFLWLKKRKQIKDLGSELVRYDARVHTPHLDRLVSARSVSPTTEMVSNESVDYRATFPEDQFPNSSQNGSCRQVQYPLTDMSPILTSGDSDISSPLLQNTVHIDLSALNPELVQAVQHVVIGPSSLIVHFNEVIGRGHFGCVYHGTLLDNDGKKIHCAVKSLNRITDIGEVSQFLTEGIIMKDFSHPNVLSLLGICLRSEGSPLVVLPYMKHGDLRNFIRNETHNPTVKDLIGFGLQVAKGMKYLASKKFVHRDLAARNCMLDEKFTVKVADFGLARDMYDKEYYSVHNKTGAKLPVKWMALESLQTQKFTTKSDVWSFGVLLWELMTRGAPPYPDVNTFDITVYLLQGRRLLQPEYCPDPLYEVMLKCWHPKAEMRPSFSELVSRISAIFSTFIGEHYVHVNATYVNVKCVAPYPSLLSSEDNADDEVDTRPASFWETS
Method in brief: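 Serum-starved (3 h) PC-3 cells pre-incubated 1 h with compound (8-point dose curve, 0.3% DMSO), then stimulated with 100 ng/mL recombinant human HGF for 10 min. Lysate phospho-Met (panTyr) measured by sandwich ELISA; IC50 from 4-parameter logistic fit, normalised to DMSO (100%) and reference-inhibitor (0%) controls.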

IC50 (AXL) [nM] | IC50 (Met) [nM] | Structure (SMILES)
≤ 100 | ≤ 100 | C=Cc1ccc(-c2c(C)ncc(C(=O)Nc3ccc(Oc4ccnc5cc(OC)c(OC)nc45)c(F)c3)c2O)o1 [Compound 151, N-[4-[(6,7-Dimethoxy-1,5-naphthyridin-4-yl)oxy]-3-fluorophenyl]-5-(5-ethenylfuran-2-yl)-4-hydroxy-6-methylpyridine-3-carboxamide]
≤ 100 | ≤ 100 | COc1cc2nccc(Oc3ccc(NC(=O)c4cnc(C)c(-c5ccoc5)c4O)cc3F)c2nc1OC [Compound 95, N-[4-[(6,7-Dimethoxy-1,5-naphthyridin-4-yl)oxy]-3-fluoro-phenyl]-5-(3-furyl)-4-hydroxy-6-methyl-pyridine-3-carboxamide]
≤ 100 | ≤ 100 | COc1cc2nccc(Oc3ccc(NC(=O)c4cnc(C)c(-c5ccc(C6CC6)o5)c4O)cc3F)c2nc1OC [Compound 155A, 5-(5-Cyclopropylfuran-2-yl)-N-[4-[(6,7-dimethoxy-1,5-naphthyridin-4-yl)oxy]-3-fluorophenyl]-4-hydroxy-6-methylpyridine-3-carboxamide hydrochloride]
≤ 100 | ≤ 100 | COc1cc2nccc(Oc3ccc(NC(=O)c4cnc(C)c(-c5cccs5)c4O)cc3F)c2nc1OC [Compound 90, N-[4-[(6,7-Dimethoxy-1,5-naphthyridin-4-yl)oxy]-3-fluoro-phenyl]-4-hydroxy-6-methyl-5-(2-thienyl)pyridine-3-carboxamide]
≤ 100 | 100 to 300 | CCc1ccc(-c2c(C)ncc(C(=O)Nc3ccc(Oc4ccnc5cc(OC)c(OC)nc45)c(F)c3)c2O)o1 [Compound 153, N-[4-[(6,7-Dimethoxy-1,5-naphthyridin-4-yl)oxy]-3-fluorophenyl]-5-(5-ethylfuran-2-yl)-4-hydroxy-6-methylpyridine-3-carboxamide]
≤ 100 | ≤ 100 | COc1cc2nccc(Oc3ccc(NC(=O)c4cnc(C)c(-c5cc(C)cs5)c4O)cc3F)c2nc1OC [Compound 91, N-[4-[(6,7-Dimethoxy-1,5-naphthyridin-4-yl)oxy]-3-fluoro-phenyl]-4-hydroxy-6-methyl-5-(4-methyl-2-thienyl) pyridine-3-carboxamide]
≤ 100 | 100 to 300 | COc1cc2nccc(Oc3ccc(NC(=O)c4cnc(C)c(-c5cc(C(F)(F)F)nn5C)c4O)cc3F)c2nc1OC [Compound 105]
≤ 100 | ≤ 100 | COc1cc2nccc(Oc3ccc(NC(=O)c4cnc(C)c(-c5ccc(C)s5)c4O)cc3F)c2nc1OC [Compound 94, N-[4-[(6,7-Dimethoxy-1,5-naphthyridin-4-yl)oxy]-3-fluoro-phenyl]-4-hydroxy-6-methyl-5-(5-methyl-2-thienyl) pyridine-3-carboxamide]

Further lines, the compound ahead of its results:

Structure (SMILES) | IC50 (AXL) [nM] | IC50 (Met) [nM]
CCc1ccc(-c2c(C)nc(C)c(C(=O)Nc3ccc(Oc4ccnc5cc(OC)c(OC)nc45)c(F)c3)c2O)o1 [Compound 147, N-[4-[(6,7-Dimethoxy-1,5-naphthyridin-4-yl)oxy]-3-fluorophenyl]-5-(5-ethylfuran-2-yl)-4-hydroxy-2,6-dimethylpyridine-3-carboxamide] | ≤ 100 | ≤ 100
COc1cc2nccc(Oc3ccc(NC(=O)c4cn(CCF)c(C)c(-c5ccsc5)c4=O)cc3F)c2nc1OC [Compound 332, N-[4-[(6,7-Dimethoxy-1,5-naphthyridin-4-yl)oxy]-3-fluorophenyl]-1-(2-fluoroethyl)-6-methyl-4-oxo-5-thiophen-3-ylpyridine-3-carboxamide] | ≤ 100 | ≤ 100
COc1cnc2c(Oc3ccc(NC(=O)c4cnc(C)c(-c5ccco5)c4O)cc3)ccnc2c1 [Compound 129, 5-(Furan-2-yl)-4-hydroxy-N-[4-[(7-methoxy-1,5-naphthyridin-4-yl)oxy]phenyl]-6-methylpyridine-3-carboxamide] | ≤ 100 | ≤ 100
COc1cnc2c(Oc3ccc(NC(=O)c4cnc(C)c(-c5ccc(C)o5)c4O)cc3F)ccnc2c1 [Compound 97, N-[3-Fluoro-4-[(7-methoxy-1,5-naphthyridin-4-yl)oxy]phenyl]-4-hydroxy-6-methyl-5-(5-methyl-2-furyl)pyridine-3-carboxamide] | ≤ 100 | 100 to 300
COc1cc2nccc(Oc3ccc(NC(=O)c4c(C)ncc(-c5cccs5)c4O)cc3F)c2nc1OC [Compound 123, N-[4-[(6,7-Dimethoxy-1,5-naphthyridin-4-yl)oxy]-3-fluorophenyl]-4-hydroxy-2-methyl-5-thiophen-2-ylpyridine-3-carboxamide] | ≤ 100 | ≤ 100
COc1cnc2c(Oc3ccc(NC(=O)c4cn(CCF)c(C)c(-c5ccsc5)c4=O)cc3F)ccnc2c1 [Compound 330, 1-(2-Fluoroethyl)-N-[3-fluoro-4-[(7-methoxy-1,5-naphthyridin-4-yl)oxy]phenyl]-6-methyl-4-oxo-5-thiophen-3-ylpyridine-3-carboxamide] | ≤ 100 | ≤ 100
COc1cc2nccc(Oc3ccc(NC(=O)c4c(C)nc(C)c(-c5cc(C)cs5)c4O)cc3F)c2nc1OC [Compound 137, N-[4-[(6,7-Dimethoxy-1,5-naphthyridin-4-yl)oxy]-3-fluorophenyl]-4-hydroxy-2,6-dimethyl-5-(4-methylthiophen-2-yl)pyridine-3-carboxamide] | ≤ 100 | ≤ 100
COc1cc2nccc(Oc3ccc(NC(=O)c4cc(Br)c(C)n(-c5ccc(F)cn5)c4=O)cc3F)c2nc1OC [Compound 55, 5-Bromo-N-[4-[(6,7-dimethoxy-1,5-naphthyridin-4-yl)oxy]-3-fluorophenyl]-1-(5-fluoropyridin-2-yl)-6-methyl-2-oxopyridine-3-carboxamide] | ≤ 100 | ≤ 100
COc1ccc2nccc(Oc3ccc(NC(=O)c4cnc(C)c(-c5ccco5)c4O)cc3F)c2n1 [Compound 118, N-[3-Fluoro-4-[(6-methoxy-1,5-naphthyridin-4-yl)oxy]phenyl]-5-(furan-2-yl)-4-hydroxy-6-methylpyridine-3-carboxamide] | ≤ 100 | ≤ 100
COc1cnc2c(Oc3ccc(NC(=O)c4cnc(C)c(-c5ccc(C)s5)c4O)cc3F)ccnc2c1 [Compound 101, N-[3-Fluoro-4-[(7-methoxy-1,5-naphthyridin-4-yl)oxy]phenyl]-4-hydroxy-6-methyl-5-(5-methyl-2-thienyl) pyridine-3-carboxamide] | ≤ 100 | ≤ 100
COc1cc2nccc(Oc3ccc(NC(=O)c4c(C)ncc(-c5sccc5C)c4O)cc3F)c2nc1OC [Compound 126, N-[4-[(6,7-Dimethoxy-1,5-naphthyridin-4-yl)oxy]-3-fluorophenyl]-4-hydroxy-2-methyl-5-(3-methylthiophen-2-yl)pyridine-3-carboxamide] | ≤ 100 | ≤ 100
COc1cnc2c(Oc3ccc(NC(=O)c4c(C)n(C)c(C)c(-c5cccs5)c4=O)cc3)ccnc2c1 [Compound 165, N-[4-[(7-Methoxy-1,5-naphthyridin-4-yl)oxy]phenyl]-1,2,6-trimethyl-4-oxo-5-thiophen-2-ylpyridine-3-carboxamide] | ≤ 100 | ≤ 100
COc1cnc2c(Oc3ccc(NC(=O)c4cnc(C)c(-c5cccs5)c4O)cc3F)ccnc2c1 [Compound 100, N-[3-Fluoro-4-[(7-methoxy-1,5-naphthyridin-4-yl)oxy]phenyl]-4-hydroxy-6-methyl-5-(2-thienyl)pyridine-3-carboxamide] | ≤ 100 | ≤ 100
COc1cc2nccc(Oc3ccc(NC(=O)c4c(C)ncc(-c5ccco5)c4O)cc3F)c2nc1OC [Compound 119, N-[4-[(6,7-Dimethoxy-1,5-naphthyridin-4-yl)oxy]-3-fluorophenyl]-5-(furan-2-yl)-4-hydroxy-2-methylpyridine-3-carboxamide] | ≤ 100 | ≤ 100
COc1cnc2c(Oc3ccc(NC(=O)c4cnc(C)c(-c5ccsc5)c4O)cc3F)ccnc2c1 [Compound 98, N-[3-Fluoro-4-[(7-methoxy-1,5-naphthyridin-4-yl)oxy]phenyl]-4-hydroxy-6-methyl-5-(3-thienyl)pyridine-3-carboxamide] | ≤ 100 | ≤ 100
